From ChEMBL document CHEMBL1649202, “Temporal trends of antimicrobial resistance and clonality of invasive Streptococcus pneumoniae isolates in Finland, 2002 to 2006” (2009)
≈ marks a conversion by molar mass, not a printed value.

Legend:
Type in all cases: functional
Streptococcus pneumoniae [1] = assay: Antimicrobial activity against Streptococcus pneumoniae serotype 14 ST 2678 harboring ERY-resistant erm(B) gene by agar plate dilution method
Streptococcus pneumoniae [2] = assay: Antimicrobial activity against Streptococcus pneumoniae serotype 19F ST 156 by agar plate dilution method
Streptococcus pneumoniae [3] = assay: Antimicrobial activity against Streptococcus pneumoniae serotype 23F ST 961 harboring ERY-resistant erm(B) gene by agar plate dilution method
Streptococcus pneumoniae [4] = assay: Antimicrobial activity against Streptococcus pneumoniae serotype 14 ST 13 harboring ERY-resistant mef(E) gene by agar plate dilution method
Streptococcus pneumoniae [5] = assay: Antimicrobial activity against Streptococcus pneumoniae serotype 17 ST 3248 by agar plate dilution method
Streptococcus pneumoniae [6] = assay: Antimicrobial activity against Streptococcus pneumoniae serotype 10 ST 461 by agar plate dilution method
Streptococcus pneumoniae [7] = assay: Antimicrobial activity against Streptococcus pneumoniae serotype 23F ST 81 harboring ERY-resistant mef(E) gene by agar plate dilution method
Streptococcus pneumoniae [8] = assay: Antimicrobial activity against Streptococcus pneumoniae serotype 14 ST 156 harboring ERY-resistant mef(E) gene by agar plate dilution method
Streptococcus pneumoniae [9] = assay: Antimicrobial activity against Streptococcus pneumoniae serotype 14 ST 2916 harboring ERY-resistant erm(B) gene by agar plate dilution method
Streptococcus pneumoniae [10] = assay: Antimicrobial activity against Streptococcus pneumoniae serotype 6B ST 138 by agar plate dilution method
Streptococcus pneumoniae [11] = assay: Antimicrobial activity against Streptococcus pneumoniae serotype 14 ST 2918 by agar plate dilution method
Streptococcus pneumoniae [12] = assay: Antimicrobial activity against Streptococcus pneumoniae serotype 19F ST 2694 harboring ERY-resistant mef(E) gene by agar plate dilution method
Streptococcus pneumoniae [13] = assay: Antimicrobial activity against Streptococcus pneumoniae serotype 14 ST 3247 by agar plate dilution method
Streptococcus pneumoniae [14] = assay: Antimicrobial activity against Streptococcus pneumoniae serotype 19F ST 3245 by agar plate dilution method
Streptococcus pneumoniae [15] = assay: Antimicrobial activity against Streptococcus pneumoniae serotype 19F ST 236 by agar plate dilution method
Streptococcus pneumoniae [16] = assay: Antimicrobial activity against Streptococcus pneumoniae serotype 23F ST 3250 by agar plate dilution method
Streptococcus pneumoniae [17] = assay: Antimicrobial activity against Streptococcus pneumoniae serotype 6B ST 3246 harboring ERY-resistant erm(B) gene by agar plate dilution method
Streptococcus pneumoniae [18] = assay: Antimicrobial activity against Streptococcus pneumoniae serotype 18C ST 496 harboring ERY-resistant erm(B) gene by agar plate dilution method
Streptococcus pneumoniae [19] = assay: Antimicrobial activity against Streptococcus pneumoniae serotype 19F ST 2917 harboring ERY-resistant erm(B) and mef(E) gene by agar plate dilution method
Streptococcus pneumoniae [20] = assay: Antimicrobial activity against Streptococcus pneumoniae serotype 19F ST 671 by agar plate dilution method
Streptococcus pneumoniae [21] = assay: Antimicrobial activity against Streptococcus pneumoniae serotype 14 ST 143 harboring ERY-resistant erm(B) gene by agar plate dilution method
Streptococcus pneumoniae [22] = assay: Antimicrobial activity against Streptococcus pneumoniae serotype 14 ST 2306 harboring ERY-resistant erm(B) gene by agar plate dilution method
Streptococcus pneumoniae [23] = assay: Antimicrobial activity against Streptococcus pneumoniae serotype 6B ST 3249 by agar plate dilution method
Streptococcus pneumoniae [24] = assay: Antimicrobial activity against Streptococcus pneumoniae serotype 19F ST 271 harboring ERY-resistant erm(B) and mef(E) gene by agar plate dilution method
Streptococcus pneumoniae [25] = assay: Antimicrobial activity against Streptococcus pneumoniae serotype 6B ST 90 harboring ERY-resistant erm(B) gene by agar plate dilution method
Streptococcus pneumoniae [26] = assay: Antimicrobial activity against Streptococcus pneumoniae serotype 9V ST 156 harboring ERY-resistant erm(B) or mef(E) gene by agar plate dilution method
Streptococcus pneumoniae [27] = assay: Antimicrobial activity against Streptococcus pneumoniae serotype 4 ST 205 by agar plate dilution method

Row | SMILES | MIC (Streptococcus pneumoniae [2]) | MIC (Streptococcus pneumoniae [3]) | MIC (Streptococcus pneumoniae [4]) | MIC (Streptococcus pneumoniae [5]) | MIC (Streptococcus pneumoniae [6]) | MIC (Streptococcus pneumoniae [7]) | MIC (Streptococcus pneumoniae [8]) | MIC (Streptococcus pneumoniae [10]) | MIC (Streptococcus pneumoniae [11]) | MIC (Streptococcus pneumoniae [12]) | MIC (Streptococcus pneumoniae [13]) | MIC (Streptococcus pneumoniae [14]) | MIC (Streptococcus pneumoniae [15]) | MIC (Streptococcus pneumoniae [16]) | MIC (Streptococcus pneumoniae [18]; read-out: MIC) | MIC (Streptococcus pneumoniae [20]) | MIC (Streptococcus pneumoniae [21]) | MIC (Streptococcus pneumoniae [23]) | MIC (Streptococcus pneumoniae [26]) | MIC (Streptococcus pneumoniae [27]) | further results
1 | CC1(C)S[C@@H]2[C@H](NC(=O)Cc3ccccc3)C(=O)N2[C@H]1C(=O)O [PENICILLIN G] | 2 µg/mL (≈ 5.98 µM) | 2 µg/mL (≈ 5.98 µM) | 2 µg/mL (≈ 5.98 µM) | 2 µg/mL (≈ 5.98 µM) | 2 µg/mL (≈ 5.98 µM) | 2 µg/mL (≈ 5.98 µM) | 2 µg/mL (≈ 5.98 µM) | 4 µg/mL (≈ 12 µM) | 2 µg/mL (≈ 5.98 µM) | 2 µg/mL (≈ 5.98 µM) | 2 µg/mL (≈ 5.98 µM) | 4 µg/mL (≈ 12 µM) | 2 µg/mL (≈ 5.98 µM) | 2 µg/mL (≈ 5.98 µM) | 2 µg/mL (≈ 5.98 µM) | 2 µg/mL (≈ 5.98 µM) | 2 µg/mL (≈ 5.98 µM) | 2 µg/mL (≈ 5.98 µM) | 2 µg/mL (≈ 5.98 µM) | 2 µg/mL (≈ 5.98 µM) | MIC (Streptococcus pneumoniae [1]): 2 µg/mL (≈ 5.98 µM); MIC (Streptococcus pneumoniae [9]): 2 µg/mL (≈ 5.98 µM); MIC (Streptococcus pneumoniae [17]): 2 µg/mL (≈ 5.98 µM); MIC (Streptococcus pneumoniae [19]): 2 µg/mL (≈ 5.98 µM); MIC (Streptococcus pneumoniae [22]): 2 µg/mL (≈ 5.98 µM); MIC (Streptococcus pneumoniae [24]; read-out: MIC): 2 µg/mL (≈ 5.98 µM); MIC (Streptococcus pneumoniae [25]): 2 µg/mL (≈ 5.98 µM)
2 | CC[C@H]1OC(=O)[C@H](C)[C@@H](O[C@H]2C[C@@](C)(OC)[C@@H](O)[C@H](C)O2)[C@H](C)[C@@H](O[C@@H]2O[C@H](C)C[C@H](N(C)C)[C@H]2O)[C@](C)(O)C[C@@H](C)C(=O)[C@H](C)[C@@H](O)[C@]1(C)O [ERYTHROMYCIN] | 0.125 µg/mL (≈ 0.17 µM) | – | 16 µg/mL (≈ 21.8 µM) | > 128 µg/mL | > 128 µg/mL | 0.125 µg/mL (≈ 0.17 µM) | 0.125 µg/mL (≈ 0.17 µM) | 16 µg/mL (≈ 21.8 µM) | > 128 µg/mL | 8 µg/mL (≈ 10.9 µM) | > 128 µg/mL | > 128 µg/mL | 8 µg/mL (≈ 10.9 µM) | > 128 µg/mL | – | 32 µg/mL (≈ 43.6 µM) | – | > 128 µg/mL | > 0.063 µg/mL | 32 µg/mL (≈ 43.6 µM) | MIC (Streptococcus pneumoniae [18]): > 128 µg/mL; MIC (Streptococcus pneumoniae [24]): > 128 µg/mL
3 | CN(C)[C@@H]1C(O)=C(C(N)=O)C(=O)[C@@]2(O)C(O)=C3C(=O)c4c(O)cccc4[C@@](C)(O)[C@H]3C[C@@H]12 [TETRACYCLINE] | 0.25 µg/mL (≈ 0.563 µM) | 0.25 µg/mL (≈ 0.563 µM) | 0.25 µg/mL (≈ 0.563 µM) | – | – | 1 µg/mL (≈ 2.25 µM) | 0.25 µg/mL (≈ 0.563 µM) | 0.25 µg/mL (≈ 0.563 µM) | 0.5 µg/mL (≈ 1.13 µM) | – | – | – | – | 16 µg/mL (≈ 36 µM) | 0.25 µg/mL (≈ 0.563 µM) | 0.5 µg/mL (≈ 1.13 µM) | 0.25 µg/mL (≈ 0.563 µM) | – | 0.25 µg/mL (≈ 0.563 µM) | 1 µg/mL (≈ 2.25 µM) | MIC (Streptococcus pneumoniae [24]; read-out: MIC): 16 µg/mL (≈ 36 µM); MIC (Streptococcus pneumoniae [25]): 0.5 µg/mL (≈ 1.13 µM)
